In experiment [1] the test system is STK3. On the set-up: method as in Klaeger et al. (2017). Conditions: STK3, 4 cell line mix lysate, Kinobeads y, ref Klaeger et al. (2017); cited from earlier work.
For experiment [2], the system named is MAP2K5. On the set-up: method as in Klaeger et al. (2017). Conditions: lysate 4 cell line mix (Colo205, K-562, MV-4-11, and SK-N-BE(2)), Kinobeads y, ref Klaeger et al. (2017); cited from earlier work.
In experiment [3] the test system is PRKAA1. Further details: method as in Klaeger et al. (2017). As to conditions: lysate 4 cell line mix (Colo205, K-562, MV-4-11, and SK-N-BE(2)), Kinobeads y, ref Klaeger et al. (2017); cited from earlier work.
Experiment [4] has as its system MAP4K3. On the set-up: method as in Reinecke et al. (2023). Conditions: MAP4K3, 5 cell line mix lysate, Kinobeads ε, ref Reinecke et al. (2023), cited from earlier work.
The test system of experiment [5] is MAP3K6. On the set-up: method as in Reinecke et al. (2023). As to conditions: MAP3K6, 5 cell line mix lysate, Kinobeads ε, ref Reinecke et al. (2023), cited from earlier work.
The test system of experiment [6] is RPS6KA6. Further details: method as in Reinecke et al. (2023). Conditions: RPS6KA6, 5 cell line mix lysate, Kinobeads ε, ref Reinecke et al. (2023), cited from earlier work.
Experiment [7] relates to HPDE (immortalized pancreatic duct cell line). As to the kind of experiment: Drug combination viability screen (ATPlite, 72 h).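 For AUC: area under vehicle-normalized viability curve scaled 0 to 100 percent.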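 For Curve bottom: fraction of vehicle control viability from four-parameter log-logistic fit.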 Type of experiment: cell-based, human. As to conditions: HPDE; for EC50: Homo sapiens. Background: Cellular ATP, detected with luciferase, serves as a proxy for viable cell number.
The subject of experiment [8] is nine PDAC patient-derived organoids (PDOs). The experiment can be described thus: PDO viability assay (CellTiter-Glo, 72 h), panel. Type of experiment: cell-based. Conditions: Homo sapiens; range among the nine PDOs; read-out: EC50 (monotherapy). On the procedure: Primary patient-derived PDAC organoid (PDO) experiments were performed in the laboratories of Prof. Maximilian Reichert (University Hospital of the TU Munich, Germany, PDO set 1: B250, B535, B678) and Prof. Jens T. Siveke (University Hospital Essen, Germany; PDO set 2: UME008, UME012, UME051, UME053, UME060, UME061). PDOs were generated from surgical resection, EUS-guided fine needle biopsy (EUS-FNB), or ascites (Appendix Table S2). Surgical specimens were first minced with a sterile scalpel and subsequently washed with Anti-Anti solution and washing medium (PDO set 1), or vice versa (PDO set 2; Appendix Table S3). Biopsy samples were directly washed with an Anti-Anti solution and washing medium. Samples were digested using 1 ml of digestion medium at 37 °C while shaking, and the enzymatic reaction was stopped by adding 15 ml of washing medium (Appendix Table S3). […]
For viability assays in PDOs, confluent organoids were removed from medium, and Matrigel was dissolved by adding 200 μl (PDO set 1) or 2 ml (PDO set 2) of Cell Recovery Solution (Corning), and additionally 500 μl of DPBS (PDO set 1 only). […] After 72 h, cell viability was measured using the CellTiter-Glo Luminescent Cell Viability Assay (Promega) diluted 1:5 in the final volume of the well. […]

SMILES strings stand for the structures. Where two headings read alike, the source gives them in different places.

In the case of `C[C@]12O[C@H](C[C@]1(O)CO)n1c3ccccc3c3c4c(c5c6ccccc6n2c5c31)CNC4=O` [Lestaurtinib], the EC50 in experiment [1] was 39.2 nM; in experiment [2], 2050 nM; in experiment [3], 1320 nM.

In the case of `COc1cc(N2CCC(N3CCN(C)CC3)CC2)ccc1Nc1ncc(Cl)c(Nc2ccccc2P(C)(C)=O)n1` [Brigatinib], the EC50 is 1160 nM in experiment [4], 844 nM in experiment [5] and 93.6 nM in experiment [6]. Moreover, the pKDapp in experiment [4] is recorded as 6.12; in experiment [5], 6.16; in experiment [6] it was 7.40. Besides, the Kd in experiment [4] (read-out: KDapp) is 759 nM; in experiment [5] (read-out: KDapp) it was 697 nM; in experiment [6] (read-out: KDapp), 39.5 nM.

On to `Nc1ccn([C@@H]2O[C@H](CO)[C@@H](O)C2(F)F)c(=O)n1` [GEM, Gemcitabine], for which the Reponse came to 2430360 in experiment [7] (R1, 13.72 nM); 2458400 in experiment [7] (R1, 41.15 nM); 2746800 in experiment [7] (R1, […] nM); 2410520 in experiment [7] (R1, 370.37 nM); 2265000 in experiment [7] (R1, 1111.11 nM); 1887440 in experiment [7] (R1, 3333.33 nM). Also, the Reponse in experiment [7] (R1, 10000 nM) was determined as 1259640; in experiment [7] (R2, 13.72 nM), 3059000; in experiment [7] (R2, 41.15 nM), 2844720; in experiment [7] (R2, […] nM), 2708840; in experiment [7] (R2, 370.37 nM), 2516400; in experiment [7] (R2, 1111.11 nM) it was 2343080. Moreover, the Reponse in experiment [7] (R2, 3333.33 nM) is listed as 1957840; in experiment [7] (R2, 10000 nM), 1504480. Also, the Curve bottom in experiment [7] (GEM curve fit) turned out to be 0.27. Also, in experiment [7] (GEM curve fit), the Curve effect size amounted to 0.73. In addition, the Curve slope in experiment [7] (GEM curve fit) amounted to 1.67. The Curve top in experiment [7] (GEM curve fit) was determined as 1.00. The AUC in experiment [7] (GEM curve fit, in %) came to 48.78. Further, the EC50 in experiment [7] (read-out: EC50) was 4.34 nM; in experiment [7] (read-out: pEC50 (converted)), 4.37 nM; in experiment [8] it was 3 to 285 nM.

The values are drawn from PMC11876601 (Molecular Systems Biology, 2025).
